By pKa is commonly meant the negative logarithm of the acid dissociation constant.

Consider four compounds from paper PMC3534288 (BMC Biophysics, 2012).

Read-outs that look alike come from different tables or passages of the source.

For data set [1], the target named is T1, hCA XIII (Homo sapiens, UniProt Q8N1Q1).
T1 construct: made in house; host or cells: Escherichia coli
The data set can be described thus: Intrinsic binding parameters by dissection of binding-linked protonation reactions. Particulars: deprotonated inhibitor anion to protonated zinc-bound water form, 25°C. From the text: Here we use the same formalism to dissect protonation reactions as previously described. The intrinsic binding constant is related to the observed binding constant and the fractions of active binding species:
(1) Kb=Kb_obs/fRSO2NH^−fCAZnH2O
Where the fractions deprotonated sulfonamide and protonated CA as a function of pH are:
(4) ΔbHintr=ΔbHobs−ninhΔb_proton_inhH−nCAΔb_proton_CAH+nΔb_proton_bufH
The intrinsic entropy of binding was obtained by subtracting Gibbs free energy from the enthalpy using standard thermodynamic equations. The intrinsic heat capacity of binding could be determined by carrying out all or part of ITC and TSA experiments at several temperatures.

For data set [2] the following is noted: sulfonamide group, 25°C; cited from earlier work.
A short description of data set [3]: Protonation of inhibitor sulfonamide group (ITC titration with acid, pKa). In kind it is physicochemical. The protocol:
Dissection of contribution from inhibitor protonation requires a set of experiments with pure inhibitor in the absence of protein to determine the pKa and the enthalpy of inhibitor protonation. The deprotonation pKa could be determined by pH titration as previously explained. The enthalpy of protonation is determined by titrating alkaline solution of the inhibitor with acid. […] Pure crystalline inhibitor is in protonated electrostatically neutral form. Therefore, 1.5 equivalent of NaOH is added to the inhibitor solution to make it deprotonated. […] This enthalpy of the second transition is the enthalpy of interest.
(In general: In ITC the heat of successive injections is recorded.)

For data set [4], the target named is T1, hCA XIII. The data set is described as follows: Isothermal titration calorimetry (ITC) of inhibitor binding to hCA XIII, observed parameters.
Experimental: ITC experiments were performed using a VP-ITC instrument (Microcal, Inc., GE-Healthcare, Northampton, MA, USA). For ligand-protein binding experiments 5–20 μM (usually 10) protein solution in the cell and 50–200 μM (usually 100) ligand solution in the syringe were used. A typical experiment consisted of 25–30 injections (usually 25), 10 μL each, with 3–5 min (usually 4 min) intervals between injections. Experiments were performed at different temperatures in various buffers containing 50 mM NaCl and 0.5-2% DMSO concentration. All experiments were repeated at least twice. For the determination of ligand binding at various pHs, the solution pH was carefully checked in the presence of protein and ligand, in the cell and syringe, respectively.
Data set [5] has as its target CA II. To be noted: pH 7.0; read-out: observed Kis and Kds; cited from earlier work.

T1 sequence (Q8N1Q1 whole entry): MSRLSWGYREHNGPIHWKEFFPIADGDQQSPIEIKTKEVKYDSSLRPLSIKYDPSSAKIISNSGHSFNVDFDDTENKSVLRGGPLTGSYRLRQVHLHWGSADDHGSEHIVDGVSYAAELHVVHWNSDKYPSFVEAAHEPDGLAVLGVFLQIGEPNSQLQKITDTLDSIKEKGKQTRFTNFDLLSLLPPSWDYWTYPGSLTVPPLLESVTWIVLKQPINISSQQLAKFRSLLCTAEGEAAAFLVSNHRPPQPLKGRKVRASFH

On to `CC(=O)Nc1nnc(S(N)(=O)=O)s1` [AZM, acetazolamide], for which, in data set [1], the TΔbSintr was -8.9 kJ/mol, the ΔbGintr is -41.5 kJ/mol, the ΔbHintr was -50.4 kJ/mol and the ΔbSintr was −29.8 J/(mol × K). Moreover, in data set [2], the Ka is 50 nM, the TΔb_protonS is 18.7 kJ/mol, the pKa is reported as 7.30 and the Δb_protonG was -41.7 kJ/mol. In data set [2], the Δb_protonH is -23.0 kJ/mol and the Δb_protonS is listed as 62.6 J/(mol × K).
For the compound `CCOc1ccc2nc(S(N)(=O)=O)sc2c1` [EZA, ethoxzolamide], in data set [3] (slope of protonation enthalpy versus temperature), the Δb_protonCp is given as 88.7 J/(mol × K). Further, in data set [3] (sulfonamide group, 25°C), the Ka stood at 10 nM, the TΔb_protonS turned out to be 16.2 kJ/mol, the Δb_protonG is -45.7 kJ/mol and the Δb_protonH was -29.5 kJ/mol. Further, the Δb_protonS in data set [3] (sulfonamide group, 25°C) was 54.2 J/(mol × K). For the same compound, in data set [2], the pKa was 8.0.
In the case of `NS(=O)(=O)C(F)(F)F` [TFMSA, trifluoromethanesulfonamide], in data set [4] (pH 7.0, 25°C, slope of observed enthalpy versus buffer protonation enthalpy), the “net number of uptaken or released protons upon binding” value was “approximately equal to zero”. Moreover, the “observed enthalpies of binding, span over pH and buffers” value in data set [4] (sodium phosphate and TRIS chloride buffers, 25°C, as a function of pH) is −10 to −70 kJ/mol. Also, in data set [1], the TΔbSintr is 10.2 kJ/mol, the ΔbGintr is -43.8 kJ/mol, the ΔbHintr was -33.5 kJ/mol and the ΔbSintr is 34.3 J/(mol × K).
Take `CS(N)(=O)=O` [methanesulfonamide]: in data set [5], the Kd was 300 µM.
